Assay results: PMC7691559 (Journal of Pesticide Science, 2020)
Positions count from the first letter of the chain named.

Tests used:
Experiment in all cases: spectrophotometric GST assay, nonlinear regression
Type in all cases: biochemical
Conditions in all cases: read-out: CDNB / Km; 5 mM GSH, CDNB varied
bmGSTu2 [1] = molecular target: T1, bmGSTu2 (Bombyx mori, UniProt A9XI30, P162A)
T1 sequence (A9XI30 1-233 P162A): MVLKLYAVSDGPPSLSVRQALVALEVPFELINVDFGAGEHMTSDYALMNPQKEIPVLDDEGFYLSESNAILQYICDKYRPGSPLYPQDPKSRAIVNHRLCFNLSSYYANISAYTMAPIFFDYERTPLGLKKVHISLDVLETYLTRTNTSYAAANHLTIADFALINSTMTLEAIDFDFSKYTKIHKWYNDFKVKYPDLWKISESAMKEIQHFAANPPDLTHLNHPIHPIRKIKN

bmGSTu2 [2] = molecular target: T2, bmGSTu2 (Bombyx mori, UniProt A9XI30, S166A)
T2 sequence (A9XI30 1-233 S166A): T1 sequence (A9XI30 1-233 P162A) with A162P, S166A

bmGSTu2 [3] = molecular target: T3, bmGSTu2 (Bombyx mori, UniProt A9XI30)
T3 sequence (A9XI30 1-233): T1 sequence (A9XI30 1-233 P162A) with A162P

bmGSTu2 [4] = molecular target: T4, bmGSTu2 (Bombyx mori, UniProt A9XI30, N102A)
T4 sequence (A9XI30 1-233 N102A): T1 sequence (A9XI30 1-233 P162A) with N102A, A162P

SMILES: O=[N+]([O-])c1ccc(Cl)c([N+](=O)[O-])c1 [CDNB, 1-chloro-2,4-dinitrobenzene]
- Km (bmGSTu2 [1]): 2.1 mM
- Km (bmGSTu2 [2]): 720 µM
- Km (bmGSTu2 [3]): 280 µM
- Km (bmGSTu2 [4]): 940 µM
